Results taken from patent publication US5370997A, “Hyperthermostable alpha-amylase” (Novo Nordisk A/S, priority 1989, dated 1994).

Assays:
[1] = target: α-amylase from Pyrococcus woesei (partially purified) (Pyrococcus woesei, UniProt Q7LYT7); assay: biochemical; conditions: 40 min, pH 5.5, read-out: enzyme activity measured in percent
Experimental: The influence of metal cations and EDTA on the activity of α-amylase from P. woesei was performed with enzyme which was partially purified by gelfiltration on a Supsrose 12 column (Pharmacia, Sweden), see Table 2. The fractions containing α-amylase were collected and concentrated 4-fold. 25 μl of enzyme (400 U/l) were added to 100 μl of sodium acetate buffer (50 mM, pH 5.5) containing 1% (w/v) starch. Metal cations, which were dissolved in sodium acetate buffer (100 mM, pH 5.5), were added in various concentrations. Incubation was conducted in a glycerin bath (100° C.) for 40 min. The reducing sugars were finally detected as described by Bergmeyer and Grassi (supra). The values represent the enzyme activity measured in percent.

[2] = target: extracellular α-amylase from Pyrococcus furiosus (partially purified) (Pyrococcus furiosus, UniProt Q8U3I9); conditions: EDTA concentration not given
Sequence of extracellular α-amylase from Pyrococcus furiosus (partially purified) (Q8U3I9 39-473): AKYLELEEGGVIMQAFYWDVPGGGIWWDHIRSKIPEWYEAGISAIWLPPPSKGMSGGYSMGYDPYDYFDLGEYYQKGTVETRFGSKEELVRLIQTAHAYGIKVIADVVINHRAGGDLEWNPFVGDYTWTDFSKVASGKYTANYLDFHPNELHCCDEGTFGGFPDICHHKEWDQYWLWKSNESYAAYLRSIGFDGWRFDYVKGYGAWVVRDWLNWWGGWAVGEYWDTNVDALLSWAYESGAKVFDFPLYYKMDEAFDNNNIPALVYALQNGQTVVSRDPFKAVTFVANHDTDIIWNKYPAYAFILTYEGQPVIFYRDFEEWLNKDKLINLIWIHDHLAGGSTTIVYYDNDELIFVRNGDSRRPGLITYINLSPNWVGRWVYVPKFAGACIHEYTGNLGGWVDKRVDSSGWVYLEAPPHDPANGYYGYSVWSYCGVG
Experimental: In order to conduct physiochemical investigations the extracellular amylase was partially purified by gelfiltration. All experiments were performed in the absence of metal ions and under aerobic conditions.

Sequence of α-amylase from Pyrococcus woesei (partially purified) (Q7LYT7 26-460): as the sequence (Q8U3I9 39-473) above

Question: For `O=C(O)CN(CCN(CC(=O)O)CC(=O)O)CC(=O)O` [EDTA], which remaining activity at 1000 µM [1] is on record?
Answer: Its remaining activity at 1000 µM is 95%.

Question: And the remaining activity at 2000 µM [1]?
Answer: Its remaining activity at 2000 µM is 85%.

Question: And the remaining activity at 5000 µM [1]?
Answer: The remaining activity at 5000 µM was 60%.

Question: What about the “influence on amylase activity” value [2] of the same compound?
Answer: The value was “did not have any influence”.
